In US9062045B2, “Triazolopyridine compounds” (Novartis AG, priority 2012, dated 2015):
pIC50: −log10 of the molar value. Where two headings read alike, the source gives them in different places.

What was measured:
GTL16 cells = experiment: GTL16 cell viability assay (CellTiter Glo); conditions: read-out: GTL-16 Proliferation IC50; GTL16 cells, 24 hours
Description: GTL16 Cell Viability Assay:
GTL16 expresses high level of c-Met receptor tyrosine kinase due to the gene amplification.
GTL16 cells were seeded in DMEM medium with 10% FBS and 1% Pene. & Strep. at 5000 cells/well/90 μL in 96 well plate and incubated overnight for attachment at 37° C. in 5% CO2 incubator. 10-fold serials dilutions of compounds were added to the cell as 10 μL/well. The final assay volume was 100 μl/well. The assay plates were incubated at 37° C. in 5% CO2 incubator for 24 hours. […] The chemiluminescent light unit was read in Envision from Perkin Elmer. All the tests were run at triplicates. The IC50 was calculated using Spotfire software.

human platelet PDE3 = human platelet PDE3 (Homo sapiens (Human), UniProt Q14432); experiment: hPDE3 assay ([3H]cAMP scintillation proximity assay); assay type: biochemical
human platelet PDE3, sequence (Q14432 whole entry): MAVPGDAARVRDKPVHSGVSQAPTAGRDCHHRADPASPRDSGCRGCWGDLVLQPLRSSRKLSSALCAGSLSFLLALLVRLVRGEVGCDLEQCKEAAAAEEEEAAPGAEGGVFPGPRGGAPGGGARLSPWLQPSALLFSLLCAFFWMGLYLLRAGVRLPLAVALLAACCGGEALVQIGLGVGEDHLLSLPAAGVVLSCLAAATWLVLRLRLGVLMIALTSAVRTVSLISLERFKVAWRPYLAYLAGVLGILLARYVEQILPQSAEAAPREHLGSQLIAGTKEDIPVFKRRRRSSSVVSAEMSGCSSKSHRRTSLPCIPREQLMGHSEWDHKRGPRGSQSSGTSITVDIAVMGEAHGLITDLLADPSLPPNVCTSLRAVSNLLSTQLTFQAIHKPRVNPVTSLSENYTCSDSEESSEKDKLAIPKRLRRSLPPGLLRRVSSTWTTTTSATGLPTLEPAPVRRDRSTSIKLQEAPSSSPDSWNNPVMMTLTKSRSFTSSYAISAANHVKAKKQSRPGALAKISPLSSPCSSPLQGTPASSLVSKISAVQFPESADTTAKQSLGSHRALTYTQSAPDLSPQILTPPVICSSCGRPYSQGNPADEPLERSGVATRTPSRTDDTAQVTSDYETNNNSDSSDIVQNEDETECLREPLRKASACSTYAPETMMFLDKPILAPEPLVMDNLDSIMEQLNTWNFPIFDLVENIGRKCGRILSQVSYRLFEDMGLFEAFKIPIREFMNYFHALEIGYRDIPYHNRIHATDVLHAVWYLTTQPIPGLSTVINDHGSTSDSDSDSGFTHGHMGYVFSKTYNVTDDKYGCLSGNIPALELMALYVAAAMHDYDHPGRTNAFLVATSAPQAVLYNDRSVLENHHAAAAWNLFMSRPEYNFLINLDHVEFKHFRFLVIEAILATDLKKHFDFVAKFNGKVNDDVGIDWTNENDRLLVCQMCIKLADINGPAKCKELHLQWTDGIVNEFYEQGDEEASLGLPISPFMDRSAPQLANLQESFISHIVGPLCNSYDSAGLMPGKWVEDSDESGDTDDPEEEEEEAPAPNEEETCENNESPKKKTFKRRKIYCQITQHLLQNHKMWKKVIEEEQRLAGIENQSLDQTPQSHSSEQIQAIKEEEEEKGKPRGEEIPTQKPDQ
Description: Here, compounds of formula I were screened for their ability to inhibit human PDE3 in the assay based on Amersham Pharmacia Biotech's Phosphodiesterase (PDE) [^3H]-adenosine 3′,5′ cyclic phosphate ([^3H]cAMP) Scintillation Proximity Assay (SPA). The assay is based on the hydrolysis of [^3H]cAMP, by human platelet PDE3, to [^3H]5′-adenoside monophosphate (5′-AMP). The [^3H]5′-AMP is specifically captured by yttrium silicate SPA beads in the presence of zinc sulphate.
• Optiplate and TopSeal-S (Can berra Packard) • Human platelet PDE3 (partially purified from human platelets)—a titration curve of human platelet PDE3 activity was performed to optimise the concentration of hPDE3 required in the assay. • Yttrium silicate SPA beads and [^3H]cAMP (Amersham) • Tris-Base, magnesium chloride, ethylenediaminetetraacetic acid (di-sodium salt), bovine serum albumin BSA and cAMP (Sigma) Solutions and Buffers: • Assay buffer: 7.56 g Tris-Base was dissolved in approximately 800 mL distilled water and the pH adjusted to 7.5 with 1 M hydrochloric acid. 10.3 mL 1 M magnesium chloride and 4.25 mL 0.5 M EDTA were added. The solution was made to 1 L with distilled water and stored at 4° C. On day of use 18 mL of the above solution was removed and 2 mL 5 mg/ml BSA were added thereto. • Enzyme buffer: 10 mM Tris-HCl at pH 7.5, 1 mM EDTA • Yttrium silicate SPA beads: 1 vial was reconstituted in 28 mL distilled water and stored at 4° C. Assay
The assay was performed in a final volume of 100 μL per well of an Optiplate (Canberra Packard). A 10 μL aliquot of the test compound dissolved in DMSO/distilled water was placed in a well of an Optiplate plate, followed by the addition of 80 μL ‘Assay mix’ (5.5 μL [^3H]cAMP and 88 μL “cold” cAMP were diluted to 8.8 mL using assay buffer). The reaction was started by adding 10 μL hPDE3 (50 μL stock hPDE3 solution was diluted 50 fold to 2.5 mL using enzyme buffer). The plate was incubated at room temperature for 30 min, the reaction was then terminated by the addition of 50 μL Yttrium silicate SPA beads (pre-warmed to room temperature) to all wells. […] The plate was sealed using TopSeal-S according to the manufacturer's instructions and counted using a Packard TopCount, each well being counted for 1 min. IC50 values were determined using non-linear regression.

SMILES: Cn1cc(-c2ccc3nnc(Sc4ccc5ncc(NC6CC(C)(C)NC(C)(C)C6)cc5c4)n3c2)cn1 [Example 62, 6-(6-(1-Methyl-1H-pyrazol-4-yl)-[1,2,4]triazolo[4,3-a]pyridin-3-ylthio)-N-(2,2,6,6-tetramethylpiperidin-4-yl)quinolin-3-amine]
- pIC50 (GTL16 cells): 7.14
- pIC50 (human platelet PDE3; human platelet PDE3): 4.74

SMILES: Cn1cc(-c2ccc3nnc(Sc4ccc5ncc(NCCO)cc5c4)n3c2)cn1 [Example 53, 2-(6-(6-(1-methyl-1H-pyrazol-4-yl)-[1,2,4]triazolo[4,3-a]pyridin-3-ylthio)quinolin-3-ylamino)ethanol]
- pIC50 (GTL16 cells): 7.77
- pIC50 (human platelet PDE3; human platelet PDE3): 4.85

SMILES: Cn1cc(-c2ccc3nnc(Sc4ccc5ncc(N6CCC7(CCOCC7)C6)cc5c4)n3c2)cn1 [Example 47, 2-(6-((6-(1-Methyl-1H-pyrazol-4-yl)-[1,2,4]triazolo[4,3-a]pyridin-3-yl)thio)quinolin-3-yl)-8-oxa-2-azaspiro[4.5]decane]
- pIC50 (GTL16 cells): 8.52
- pIC50 (human platelet PDE3; human platelet PDE3): 4.92

SMILES: Cn1cc(-c2cc(F)c3nnc(Sc4ccc5ncc(N6CCC(O)CC6)cc5c4)n3c2)cn1 [Example 50, 1-(6-((8-Fluoro-6-(1-methyl-1H-pyrazol-4-yl)-[1,2,4]triazolo[4,3-a]pyridin-3-yl)thio)quinolin-3-yl)piperidin-4-ol]
- pIC50 (GTL16 cells): 9.00
- pIC50 (human platelet PDE3; human platelet PDE3): 4.52

SMILES: C/C(=N\O)c1ccc2nnc(Sc3ccc4ncc(N5CCOCC5)cc4c3)n2c1 [Example 77, (E)-1-(3-((3-Morpholin-4-yl-quinolin-6-yl)thio)-[1,2,4]triazolo[4,3-a]pyridin-6-yl)ethanone oxime]
- pIC50 (GTL16 cells): 8.10
- pIC50 (human platelet PDE3; human platelet PDE3): 4.92

SMILES: CN1CCC(Nc2cnc3ccc(Sc4nnc5c(F)cc(-c6cnn(C)c6)cn45)cc3c2)CC1 [Example 8, {6-[8-Fluoro-6-(1-methyl-1H-pyrazol-4-yl)-[1,2,4]triazolo[4,3-a]pyridin-3-ylsulfanyl]-quinolin-3-yl}-(1-methyl-piperidin-4-yl)-amine]
- pIC50 (human platelet PDE3; human platelet PDE3): 4.52

SMILES: Cn1cc(-c2ccc3nnc(Sc4ccc5ncc(NC6CCNCC6)cc5c4)n3c2)cn1 [Example 23, 6-(6-(1-Methyl-1H-pyrazol-4-yl)-[1,2,4]triazolo[4,3-a]pyridin-3-ylthio)-N-(piperidin-4-yl)quinolin-3-amine]
- pIC50 (GTL16 cells): 6.54
- pIC50 (human platelet PDE3; human platelet PDE3): 4.52

SMILES: Cn1cc(-c2ccc3nnc(Sc4ccc5ncc(N6CCNCC6)cc5c4)n3c2)cn1 [Example 27, 6-(6-(1-Methyl-1H-pyrazol-4-yl)-[1,2,4]triazolo[4,3-a]pyridin-3-ylthio)-3-(piperazin-1-yl)quinoline]
- pIC50 (GTL16 cells): 8.40
- pIC50 (human platelet PDE3; human platelet PDE3): 4.77

SMILES: Cn1cc(-c2cc(F)c3nnc(Sc4ccc5ncc(N6CCOCC6)cc5c4)n3c2)cn1 [Example 70, 4-(6-(8-Fluoro-6-(1-methyl-1H-pyrazol-4-yl)-[1,2,4]triazolo[4,3-a]pyridin-3-ylthio)quinolin-3-yl)morpholine]
- pIC50 (GTL16 cells): 9.00

SMILES: Cn1cc(-c2cc(F)c3nnc(Sc4ccc5ncc(NCCO)cc5c4)n3c2)cn1 [Example 54, 2-(6-(8-Fluoro-6-(1-methyl-1H-pyrazol-4-yl)-[1,2,4]triazolo[4,3-a]pyridin-3-ylthio)quinolin-3-ylamino)ethanol]
- pIC50 (GTL16 cells): 7.85

SMILES: Cn1cc(-c2ccc3nnc(Sc4ccc5ncc(NC6CCOCC6)cc5c4)n3c2)cn1 [Example 68, {6-[6-(1-Methyl-1H-pyrazol-4-yl)-[1,2,4]triazolo[4,3-a]pyridin-3-ylsulfanyl]-quinolin-3-yl}-(tetrahydro-pyran-4-yl)-amine]
- pIC50 (GTL16 cells): 8.52
- pIC50 (human platelet PDE3; human platelet PDE3): 5.00

SMILES: Cn1cc(-c2ccc3nnc(Sc4ccc5ncc(NC6CCOC6)cc5c4)n3c2)cn1 (stereo not shown) [Example 51]
- pIC50 (GTL16 cells): 8.05
- pIC50 (human platelet PDE3; human platelet PDE3): 5.15

SMILES: CN1CCN(c2cnc3ccc(Sc4nnc5ccc(-c6cnn(C)c6)cn45)cc3c2)CC1 [Example 74, 3-(4-Methyl-piperazin-1-yl)-6-[6-(1-methyl-1H-pyrazol-4-yl)-[1,2,4]triazolo[4,3-a]pyridin-3-ylsulfanyl]-quinoline]
- pIC50 (GTL16 cells): 8.70

SMILES: CN(C)[C@H]1CCN(c2cnc3ccc(Sc4nnc5c(F)cc(-c6cnn(C)c6)cn45)cc3c2)C1 [Example 13, (S)-1-(6-(8-Fluoro-6-(1-methyl-1H-pyrazol-4-yl)-[1,2,4]triazolo[4,3-a]pyridin-3-ylthio)quinolin-3-yl)-N,N-dimethylpyrrolidin-3-amine]
- pIC50 (GTL16 cells): 9.40
- pIC50 (human platelet PDE3; human platelet PDE3): 4.62

SMILES: OCCn1cc(-c2cnc3nnn(Cc4ccc5ncccc5c4)c3n2)cn1 [Comparator No. 3 (PF-04217903), 2-[4-(3-Quinolin-6-ylmethyl-3H-[1,2,3]triazolo[4,5-b]pyrazin-5-yl)-pyrazol-1-yl]-ethanol, reference compound]
- pIC50 (GTL16 cells): > 8.00

SMILES: CN1CCN(Cc2cnc3ccc(Sc4nnc5ccc(-c6cnn(C)c6)cn45)cc3c2)CC1 [Example 6, 6-(6-(1-Methyl-1H-pyrazol-4-yl)-[1,2,4]triazolo[4,3-a]pyridin-3-ylthio)-3-((4-methylpiperazin-1-yl)methyl)quinoline]
- pIC50 (GTL16 cells): 7.57
- pIC50 (human platelet PDE3; human platelet PDE3): 4.52

SMILES: C/C(=N\OCCO)c1ccc2nnc(Sc3ccc4ncc(N5CCOCC5)cc4c3)n2c1 [Example 78, (E)-1-(3-((3-Morpholin-4-yl-quinolin-6-yl)thio)-[1,2,4]triazolo[4,3-a]pyridin-6-yl)ethanone O-(2-hydroxyethyl)oxime]
- pIC50 (human platelet PDE3; human platelet PDE3): 4.55

SMILES: C/C(=N\O)c1ccc2nnc(Sc3ccc4ncc(NC5CCOCC5)cc4c3)n2c1 [Example 84, (E)-1-(3-(3-(Tetrahydro-2H-pyran-4-ylamino)quinolin-6-ylthio)-[1,2,4]triazolo[4,3-a]pyridin-6-yl)ethanone oxime]
- pIC50 (GTL16 cells): 8.52
- pIC50 (human platelet PDE3; human platelet PDE3): 5.22

SMILES: C/C(=N\OCCO)c1cc(F)c2nnc(Sc3ccc4ncc(N5CC[C@H](N(C)C)C5)cc4c3)n2c1 [Example 85, (S,E)-1-{3-[3-(3-dimethylamino-pyrrolidin-1-yl)-quinolin-6-ylthio]-8-fluoro-[1,2,4]triazolo[4,3-a]pyridin-6-yl}ethanone O-(2-hydroxy-ethyl)-oxime]
- pIC50 (GTL16 cells): 7.64
- pIC50 (human platelet PDE3; human platelet PDE3): 4.52

SMILES: COC1CCN(c2cnc3ccc(Sc4nnc5ccc(-c6cnn(C)c6)cn45)cc3c2)CC1 [Example 43, 3-(4-Methoxypiperidin-1-yl)-6-(6-(1-methyl-1H-pyrazol-4-yl)-[1,2,4]triazolo[4,3-a]pyridin-3-ylthio)quinoline]
- pIC50 (GTL16 cells): 9.52

SMILES: C/C(=N\OCCO)c1ccc2nnc(Sc3ccc4ncc(N5CCN(C)CC5)cc4c3)n2c1 [Example 86, (E)-1-(3-(3-(4-methylpiperazin-1-yl)quinolin-6-ylthio)-[1,2,4]triazolo[4,3-a]pyridin-6-yl)ethanone O-2-hydroxyethyl oxime]
- pIC50 (GTL16 cells): 7.29
- pIC50 (human platelet PDE3; human platelet PDE3): 4.57

SMILES: C/C(=N\OCCO)c1ccc2nnc(Sc3ccc4ncc(CN5CCOCC5)cc4c3)n2c1 [Example 80, (E)-1-(3-((3-(Morpholin-4-yl-methyl)quinolin-6-yl)thio)-[1,2,4]triazolo[4,3-a]pyridin-6-yl)ethanone O-(2-hydroxyethyl)oxime]
- pIC50 (human platelet PDE3; human platelet PDE3): 4.52

SMILES: C/C(=N\OCCO)c1ccc2nnc(Sc3ccc4ncc(NC5CCOCC5)cc4c3)n2c1 [Example 83, (E)-1-(3-(3-(Tetrahydro-2H-pyran-4-ylamino)quinolin-6-ylthio)-[1,2,4]triazolo[4,3-a]pyridin-6-yl)ethanone O-2-hydroxyethyl oxime]
- pIC50 (GTL16 cells): 9.00
- pIC50 (human platelet PDE3; human platelet PDE3): 4.70

SMILES: CN1CCC(Nc2cnc3ccc(Sc4nnc5ccc(-c6cnn(C)c6)cn45)cc3c2)CC1 [Example 15, (1-Methyl-piperidin-4-yl)-{6-[6-(1-methyl-1H-pyrazol-4-yl)-[1,2,4]triazolo[4,3-a]pyridin-3-ylsulfanyl]-quinolin-3-yl}-amine]
- pIC50 (GTL16 cells): 8.70
- pIC50 (human platelet PDE3; human platelet PDE3): 4.52

SMILES: Cn1cc(-c2ccc3nnc(Sc4ccc5ncc(N6CCCC(N)C6)cc5c4)n3c2)cn1 (stereo not shown) [Example 10, 1-(6-(6-(1-Methyl-1H-pyrazol-4-yl)-[1,2,4]triazolo[4,3-a]pyridin-3-ylthio)quinolin-3-yl)piperidin-3-amine]
- pIC50 (GTL16 cells): 7.68

SMILES: Cn1cc(-c2ccc3nnc(Sc4ccc5ncc(N6CCC(N)CC6)cc5c4)n3c2)cn1 [Example 21, 1-(6-(6-(1-Methyl-1H-pyrazol-4-yl)-[1,2,4]triazolo[4,3-a]pyridin-3-ylthio)quinolin-3-yl)piperidin-4-amine]
- pIC50 (GTL16 cells): 7.44

SMILES: C/C(=N\O)c1ccc2nnc(Sc3ccc4ncc(N5CC[C@H](N(C)C)C5)cc4c3)n2c1 [Example 82, (S,E)-1-(3-(3-(3-(Dimethylamino)pyrrolidin-1-yl)quinolin-6-ylthio)-[1,2,4]triazolo[4,3-a]pyridin-6-yl)ethanone oxime]
- pIC50 (human platelet PDE3): 4.96
